# In US20260132103A1, “Bumetanide Derivatives for the Therapy of Stroke and Other Neurological Diseases/Disorders Involving NKCCs” (University of Pittsburgh - Of the Commonwealth System of …, priority 2018, published 2026):
# Key:
# Format in all cases: in vivo, mouse
# [1] = tested on: transient focal cerebral ischemia (tMCAO) in mice; assay: Neurological function tests (sensorimotor deficits) after tMCAO; details: normotensive mice, 1-14 days monitor and behavior test after stroke
# Text: (§1) FIGS. 2A-2D: Efficacy of NKCC1 inhibitors on improving neurological function in mice after tMCAO (see Example 3). (A) Neurological score, (B) corner test, (C) foot-fault test, and (D)-(E) adhesive tape test during 1-14 day after tMCAO. Data are mean±SD, n=4-9. *p<0.05 for DMSO vs STS66, **p<0.05 for DMSO vs STS5, ***p<0.05 for DMSO vs BMT, #p<0.05 for BMT vs STS66, ###p<0.05 for STS5 vs STS66.
# Transient focal cerebral ischemia was induced in mice by intraluminal occlusion of the left middle cerebral artery (MCA) for 50 min as described previously (Chen H et al., 2005). Mice were anesthetized with 3% isoflurane in 70%: 30% N2O/O2 until they were unresponsive to the tail pinch test. Animals were then fitted with a nose cone blowing 1.5% isoflurane for anesthesia maintenance. The left common carotid artery was exposed and the occipital artery branches of the external carotid artery were isolated and coagulated. […]
# Neurological functional deficits in mice were assessed in a blinded manner with the following tests: neurological score, adhesive tape removal test, corner test, cylinder test, and grid walking foot-fault test. These tests are established for identifying and quantifying sensorimotor deficits and postural asymmetries (Bederson J B, et al., 1986; Zhang L, et al., 2002; Schaar K L, et al., 2010).
# [2] = tested on: transient focal cerebral ischemia (tMCAO) in mice; assay: Neurological score after tMCAO
# Text: as §1
# Transient focal cerebral ischemia was induced in mice by intraluminal occlusion of the left middle cerebral artery (MCA) for 50 min as described previously (Chen H et al., 2005). Mice were anesthetized with 3% isoflurane in 70%: 30% N2O/O2 until they were unresponsive to the tail pinch test. Animals were then fitted with a nose cone blowing 1.5% isoflurane for anesthesia maintenance. The left common carotid artery was exposed and the occipital artery branches of the external carotid artery were isolated and coagulated. The internal carotid artery was isolated and the extracranial branch was dissected and ligated. A rubber silicon-coated monofilament suture (6-0) was introduced into the internal carotid artery lumen and gently advanced approximately 8-9 mm to block the MCA blood flow for 50 min. The rectal temperature was maintained at 37.0±0.5° C. during surgery through a temperature-controlled heating pad. Achievement of ischemia was confirmed by monitoring regional cerebral blood flow (rCBF) with laser speckle contrast imager (Pericam). For reperfusion, the suture was withdrawn after the MCAO. The incision was closed and the mouse recovered under a heating lamp to maintain the core temperature (36.0-37.0° C.) during the 30-60 min recovery period. After recovery, animals were returned to their cages with free access to food and water.
# Vehicle: DMSO (2 ml/kg body weight/day), the NKCC1 inhibitor bumetanide (BMT, 10 mg/kg body weight/day in DMSO), bumetanide's prodrug STS5 (13 mg/kg body weight/day in DMSO), or the novel NKCC1 inhibitor STS66 according to the invention (12 mg/kg body weight/day in DMSO) was administered via intraperitoneal injection (i.p). The initial half dose of the drugs (BMT, STS5, STS66) was given at 3 h after the onset of reperfusion and the second half dose at 8 h reperfusion in the tMCAO model.
# Neurological deficit grading system was used to evaluate neurological deficit at 1, 2, 3, 5, 7, 10 and 14 days after tMCAO as described previously (Bederson J B et al,1986).
# [3] = tested on: permanent focal cerebral ischemia (pdMCAO) in AngII-induced hypertensive mice; assay: Brain infarct volume and swelling after pdMCAO in AngII-induced hypertensive mice; details: 24 h post-pdMCAO, i.p., half dose at 3 h and 8 h after pdMCAO
# Procedure: FIG. 3: Effects of NKCC1 inhibitors against the worsened ischemic stroke in AngII-induced hypertensive mice after pdMCAO (see Example 3). (A) Experimental protocol in AngII-induced hypertensive C57/B6 mice. Permanent distal middle cerebral artery occlusion (pdMCAO) was induced in mice at day 14 post-AngII infusion. DMSO, BMT or STS66 was administered in mice via i.p. with the initial half dose at 3 h and the second half dose at 8 h after pdMCAO. (B) Representative TTC-stained mouse coronal brain sections at 2-8 mm posterior of the frontal pole were shown. TTC staining was performed at 24 h post pdMCAO. Scale: 5 mm. (C) Brain infarct volume was calculated. Data are mean±SD. Saline (n=4), AngII (n=5); *p<0.05 vs. saline control.
# Permanent focal cerebral ischemia was induced by permanent occlusion of the distal middle cerebral artery (pdMCAO) in mice (Suenaga J, et al., 2015). Under anesthesia as described above, a skin incision at the midline of the neck was made. After being separated from the vagal nerve, the left CCA was exposed and occluded by ligation and the skin was sutured. Another skin incision (1 cm) was made between the left eye and the ear using fine operation scissors. The temporal muscle was identified and detached from the skull in its apical and dorsal part without totally removing the muscle by using the forceps. The MCA below the transparent skull in the rostral part of the temporal area, dorsal to the retro-orbital sinus was identified. If the MCA bifurcation is not visible (due to an anatomical normal variation), the vessel most rostral was identified. The skull above the MCA branch was thinned out with the drill until it has a thin and translucent texture. The artery, proximal and distal to the MCA bifurcation, was coagulated with the electrocoagulation forceps (in a bipolar mode at 7 W). The temporal muscle was relocated to its position and the burr hole was covered with wax and the skin wound was sutured and infiltrated with analgesia bupivacaine (100 μl 0.25%) topically. The animal was placed in a cage and monitored for recovery from anesthesia. […]
# At 24 h post-reperfusion, mice were anesthetized with 5% isoflurane and then decapitated. […] Ischemic lesions were traced in each slice in a blinded manner, and the total volume of infarction was calculated with correction for edema, as described by Swanson et al., 1990 using ImageJ software. […] Brain swelling was determined with the following formula. […]
# The efficacy of NKCC1 inhibitors was then tested in AngII-induced hypertensive mice after permanent MCAO model (pdMCAO), which is more clinically relevant to the majority ischemic stroke patients (McBride D W, et al., 2017). Brain infarct volume and swelling were measured at 24 h after pdMCAO. […]
Compound,sensorimotor deficits [1],neurological deficit score ([2]; day 5),neurological deficit score ([2]; day 10),brain swelling (edema) [3],infarct volume [3],neurological deficit score ([2]; day 1 post-reperfusion),neurological deficit score ([2]; day 14 post-reperfusion)
"CCCCNc1cc(C(=O)O)cc(S(N)(=O)=O)c1Oc1ccccc1 [BMT, 3-(butylamino)-4-phenoxy-5-sulfamoylbenzoic acid, reference compound]",improved all sensorimotor deficits,3.8±0.4,2.5±0.5,7.1±1.1%,22.4±2.9 mm^3,–,–
"CCCCNc1cc(CNCC(F)(F)F)cc(S(N)(=O)=O)c1Oc1ccccc1 [STS66, 3-(Butylamino)-2-phenoxy-5-[(2,2,2-trifluoroethylamino)methyl]benzenesulfonamide]",improved all sensorimotor deficits,–,–,2.4±1.1%,13.3±2.5 mm^3,4.0±0.0,1.2±0.4
